Data from patent publication US11020405B2, “Method for prevention or treatment of diabetic complications” (KANGWON NATIONAL UNIVERSITY UNIVERSITY-INDUSTRY COOPERATION …, priority 2017, dated 2021).

Columns and labels:
B16F10 cells = experiment: Hyperglycemia-induced cancer metastasis in lungs of diabetic mice (melanoma nodules); assay type: in vivo, C57BL/6 mice; conditions: 10 mg/kg midazolam intraperitoneal daily for 14 days, B16F10 cells intravenously (FIG. 22)
Procedure: FIGS. 22A and 22B show the preventive effects of midazolam against hyperglycemia-induced cancer metastasis in the lungs of diabetic mice. Six-week-old male C57BL/6 mice were administered with streptozotocin (150 mg/kg) to give diabetic mouse models. One weeks after streptozotocin injection, diabetic mice were administered 10 mg/kg midazolam by intraperitoneal injection daily for 14 days, and diabetic and midazolam supplemented diabetic mice were intravenously injected with B16F10 cells (5×10^5) in PBS. The weight of mice were measure in diabetic (16.4±0.2 g) and midazolam supplemented diabetic mice (16.2±0.5 g). Blood glucose levels were also monitored in diabetic (511.0±10.0 mg/dL) and midazolam supplemented diabetic mice (515.7±3.4 mg/dL). Two weeks later, the mice were euthanized by cervical dislocation, and the lungs were removed and bleached in Fekete's solution (70% ethanol, 3.7% paraformaldehyde, 0.75 M glacial acetic acid). Representative images of melanoma metastasis in lungs are shown in additional FIG. 22A. The results of melanoma metastasis assessed by counting metastatic lung nodules under a dissection microscope are shown in additional FIG. 22B (n=2/group).

kidneys of diabetic mice = experiment: Hyperglycemia-induced renal vascular leakage in diabetic mice (FITC-dextran); assay type: in vivo, C57BL/6 mice; conditions: 10 mg/kg midazolam intraperitoneal daily for 2 days (FIG. 20)
Procedure: FIGS. 20A and 20B show the preventive effects of midazolam against hyperglycemia-induced renal vascular leakage in diabetic mice. Six-week-old male C57BL/6 mice were administered with streptozotocin (150 mg/kg body weight) to give diabetic mouse models. Two weeks after streptozotocin injection, diabetic mice were administered 10 mg/kg midazolam by intraperitoneal injection daily for 2 days, and vascular leakage was investigated. The body weight of mice were measure in normal (19.9±0.3 g), diabetic (17.7±0.3 g), and midazolam supplemented diabetic mice (17.7±0.3 g). Blood glucose levels were also monitored in normal (123.5±6.5 mg/dL), diabetic (505.0±89.0 mg/dL), and midazolam supplemented diabetic mice (500.3±63.3 mg/dL). The mice were anesthetized with 3% isoflurane, and 1.25 mg of FITC-dextran was injected into the right ventricle of each mouse and allowed to circulate for 5 min. The kidneys were dissected, fixed, and embedded in OCT compound. Cryosections of kidneys were stained with nuclear counterstaining with DAPI. Representative images of vascular leakage in kidneys are shown in additional FIG. 20A. Scale bars, 100 μm. The results of vascular leakage quantitatively analyzed by measuring the fluorescence intensity of FITC-dextran in the kidneys are shown in additional FIG. 20B. (n=4 for normal and diabetic, n=6 for diabetic+Midazolam).

SMILES: Cc1ncc2n1-c1ccc(Cl)cc1C(c1ccccc1F)=NC2 [midazolam]
- number of metastatic nodules in the lungs (B16F10 cells): the number of metastatic nodules in the lungs of diabetic mice was suppressed
- renal vascular leakage (FITC-dextran extravasation) (kidneys of diabetic mice): blocked by midazolam administration
